How the values were obtained:
[1] = tested on: choline acetyltransferase (ChAT) activity in PC12 cells; experiment: Choline acetyltransferase (ChAT) assay in NGF-treated PC12 cells (screen for NGF-like activity); assay type: cell-based, rat; settings: 3 days incubation with test compound, compared with NGF alone
Description: Cultured PC12 cells (rat adrenal pheochromocytoma from ATCC) have receptors for NGF. Responses include promotion of neurite outgrowth and elevation of choline acetyltransferase (ChAT) (L. A. Green and A. S. Tischler, Cell Neurobiol., 3, 373 (1982)).
The following assay is modified from that described in H L White and P W Scates, Neurochem. Res., 16, 63 (1991). PC12 cells were cultured at 37° C. in RPMI supplemented with HEPES buffer, pH 7.5 (to 10 mM), fetal bovine serum, horse serum, glutamine, penicillin, streptomycin and non-essential amino acids. Cultures were split 1:3 every 3 to 4 days. Exponentially dividing cells were plated into fresh medium on collagen-coated 12-well plastic dishes (10^5 cells/well). After allowing one day for cell attachment, the medium was replaced with low serum medium, with or without test compounds with each condition in triplicate. The medium may contain up to 0.2% ethanol, which was used as a solvent for most compounds tested. Cells were examined for morphological changes using an Olympus IMT-2 inverted research microscope. After 3 days incubation with test compounds, medium was removed and replaced with 0.2 ml of lysis and ChAT assay mixture. The plates were incubated at 37° C. for 2 hours and then placed into a freezer at −20° C. […]
The assay mixture contained 100 mM phosphate, pH 7.4, 0.1% NP-40, 150 mM NaCl, 1.5 mM choline, 10 mM EDTA, 0.1 mM eserine, 0.1 mM acetyl-coenzyme A and about 0.5 uCi (40-70 Ci/mol) [14C]acetyl-coenzyme A in each ml of mixture. […] The vials were centrifuged at 3000 rpm (max.=16 cm) for 15 minutes and then counted in a Beckman LS6500 scintillation counter. […]
The following data were obtained for representative compounds of the present invention which (1) increased the activity of choline acetyltransferase ChAT), (2) enhanced NGF-stimulated neurite outgrowth and/or (3) potentiated or appeared additive with the action of NGF itself. The concentration at which the test compound doubled the ChAT activity over the activity with NGF alone (no test compound) was recorded as the EC2x value: […]

In the case of Cl.Nc1ncc(Oc2ccc(Cl)cc2)c(N[C@H]2CC[C@H](O)CC2)n1, the melting point was 155 to 156 °C.

In the case of Nc1ncc(Oc2ccc(Cl)cc2)c(N[C@H]2CC[C@H](O)CC2)n1 [Example 3, 2-amino-5-(4-chlorophenoxy)-4-(trans-4-hydroxycyclohexylamino)pyrimidine], the melting point was 154 to 155 °C and the “EC2x (concentration at which the test compound doubled the ChAT activity over the activity with NGF alone)” value [1] was 0.4 µM.

In the case of Cl.Nc1ncc(Oc2ccc(Cl)cc2Cl)c(N[C@H]2CC[C@H](O)CC2)n1 [Example 5, 2-amino-5-(2,4-dichlorophenoxy)-4-(trans-4-hydroxycyclohexylamino)pyrimidine hydrochloride], the melting point was 138 to 145 °C and the “EC2x (concentration at which the test compound doubled the ChAT activity over the activity with NGF alone)” value [1] was 1.2 µM.

In the case of Cl.Nc1ncc(Oc2ccc(Cl)cc2)c(NC2CCC(=O)CC2)n1 [Example 10, 2-amino-5-(4-chlorophenoxy)-4-(4-oxocyclohexylamino)pyrimidine hydrochloride], the “EC2x (concentration at which the test compound doubled the ChAT activity over the activity with NGF alone)” value [1] was 0.7 µM.

Reference: patent publication US6916820B1, “Neurotrophic substituted pyrimidines” (Krenitsky Pharmaceuticals, Inc., priority 1999, dated 2005)
